Reference: ChEMBL document CHEMBL5550210, “Discovery of Novel α,β-Unsaturated Amide Derivatives as Candidate Antifungals to Overcome Fungal Resistance” (J Med Chem, 2024)
Converted amounts (≈) assume the structure as drawn.

Tests used:
Candida tropicalis = experiment: Antifungal activity against Candida tropicalis CGMCC 2.3739 assessed as inhibition of fungal growth by CLSI protocol based microdilution method; format: functional
Candida albicans [1] = experiment: Antifungal activity against fluconazole-resistant Candida albicans CaR assessed as inhibition of fungal growth by CLSI based microdilution method; format: functional
Candida albicans [2] = experiment: Antifungal activity against fluconazole-resistant Candida albicans 901 assessed as inhibition of fungal growth by CLSI based microdilution method; format: functional
Aspergillus fumigatus = experiment: Antifungal activity against Aspergillus fumigatus CGMCC 3.7795 assessed as inhibition of fungal growth by CLSI protocol based microdilution method; format: functional
Candida albicans [3] = experiment: Antifungal activity against Candida albicans CPCC400616 assessed as inhibition of fungal growth by CLSI protocol based microdilution method; format: functional
Candida albicans [4] = experiment: Antifungal activity against fluconazole-resistant Candida albicans 632 assessed as inhibition of fungal growth by CLSI based microdilution method; format: functional
Candida albicans [5] = experiment: Antifungal activity against fluconazole-resistant Candida albicans 17 assessed as inhibition of fungal growth by CLSI based microdilution method; format: functional
Cryptococcus neoformans = experiment: Antifungal activity against Cryptococcus neoformans CGMCC2.3161 assessed as inhibition of fungal growth by CLSI protocol based microdilution method; format: functional
Pichia kudriavzevii = experiment: Antifungal activity against Candida krusei AS 2.1045 assessed as inhibition of fungal growth by CLSI protocol based microdilution method; format: functional
Nakaseomyces glabratus = experiment: Antifungal activity against Candida glabrata assessed as inhibition of fungal growth by CLSI protocol based microdilution method; format: functional
Candida parapsilosis = experiment: Antifungal activity against Candida parapsilosis ATCC 22019 assessed as inhibition of fungal growth by CLSI protocol based microdilution method; format: functional; details: Lodderomyces parapsilosis
Candida albicans [6] = experiment: Antifungal activity against Candida albicans SC5314 assessed as inhibition of fungal growth by CLSI protocol based microdilution method; format: functional
Candida albicans [7] = experiment: Antifungal activity against fluconazole-resistant Candida albicans 904 assessed as inhibition of fungal growth by CLSI based microdilution method; format: functional
[8] = Half life in mouse plasma measured at 180 mins; format: ADME, cell-free

CCNC(=O)/C=C/c1ccc(COC(Cn2ccnc2)c2ccc(Cl)cc2Cl)cc1 (stereo not drawn)
MIC (Candida tropicalis): 4 µg/mL (≈ 9 µM) | MIC (Candida albicans [1]): 128 µg/mL (≈ 288 µM) | MIC (Candida albicans [2]): 16 µg/mL (≈ 36 µM) | MIC (Aspergillus fumigatus): 8 µg/mL (≈ 18 µM) | MIC (Candida albicans [3]): 0.5 µg/mL (≈ 1.13 µM) | MIC (Candida albicans [4]): 2 µg/mL (≈ 4.5 µM) | MIC (Candida albicans [5]): 128 µg/mL (≈ 288 µM) | MIC (Cryptococcus neoformans): 8 µg/mL (≈ 18 µM) | MIC (Pichia kudriavzevii): 32 µg/mL (≈ 72 µM) | MIC (Nakaseomyces glabratus): 16 µg/mL (≈ 36 µM) | MIC (Candida parapsilosis): 8 µg/mL (≈ 18 µM) | MIC (Candida albicans [6]): 1 µg/mL (≈ 2.25 µM) | MIC (Candida albicans [7]): 16 µg/mL (≈ 36 µM)

O=C(/C=C/c1ccc(COC(Cn2ccnc2)c2ccc(Cl)cc2Cl)cc1)Nc1cccc(Br)c1 (stereo not drawn)
MIC (Candida tropicalis): 64 µg/mL (≈ 112 µM) | MIC (Candida albicans [1]): 128 µg/mL (≈ 224 µM) | MIC (Candida albicans [2]): 4 µg/mL (≈ 7 µM) | MIC (Aspergillus fumigatus): 4 µg/mL (≈ 7 µM) | MIC (Candida albicans [3]): 0.25 µg/mL (≈ 0.438 µM) | MIC (Candida albicans [4]): 4 µg/mL (≈ 7 µM) | MIC (Candida albicans [5]): 128 µg/mL (≈ 224 µM) | MIC (Cryptococcus neoformans): 8 µg/mL (≈ 14 µM) | MIC (Pichia kudriavzevii): 64 µg/mL (≈ 112 µM) | MIC (Nakaseomyces glabratus): 64 µg/mL (≈ 112 µM) | MIC (Candida parapsilosis): 0.125 µg/mL (≈ 0.219 µM) | MIC (Candida albicans [6]): 0.125 µg/mL (≈ 0.219 µM) | MIC (Candida albicans [7]): 2 µg/mL (≈ 3.5 µM)

O=C(/C=C/c1ccc(COC(Cn2ccnc2)c2ccc(Cl)cc2Cl)cc1)Nc1ccccc1 (stereo not drawn)
MIC (Candida tropicalis): 2 µg/mL (≈ 4.06 µM) | MIC (Candida albicans [1]): 8 µg/mL (≈ 16.2 µM) | MIC (Candida albicans [2]): 1 µg/mL (≈ 2.03 µM) | MIC (Aspergillus fumigatus): 1 µg/mL (≈ 2.03 µM) | MIC (Candida albicans [3]): 0.06 µg/mL (≈ 0.122 µM) | MIC (Candida albicans [4]): 0.25 µg/mL (≈ 0.508 µM) | MIC (Candida albicans [5]): 128 µg/mL (≈ 260 µM) | MIC (Cryptococcus neoformans): 1 µg/mL (≈ 2.03 µM) | MIC (Pichia kudriavzevii): 64 µg/mL (≈ 130 µM) | MIC (Nakaseomyces glabratus): 64 µg/mL (≈ 130 µM) | MIC (Candida parapsilosis): 32 µg/mL (≈ 65 µM) | MIC (Candida albicans [6]): 0.03 µg/mL (≈ 0.0609 µM) | MIC (Candida albicans [7]): 0.5 µg/mL (≈ 1.02 µM)

CNC(=O)/C=C/c1ccc(COC(Cn2ccnc2)c2ccc(Cl)cc2Cl)cc1 (stereo not drawn)
MIC (Candida tropicalis): 8 µg/mL (≈ 18.6 µM) | MIC (Candida albicans [1]): 128 µg/mL (≈ 297 µM) | MIC (Candida albicans [2]): 16 µg/mL (≈ 37.2 µM) | MIC (Aspergillus fumigatus): 8 µg/mL (≈ 18.6 µM) | MIC (Candida albicans [3]): 0.25 µg/mL (≈ 0.581 µM) | MIC (Candida albicans [4]): 4 µg/mL (≈ 9.3 µM) | MIC (Candida albicans [5]): 128 µg/mL (≈ 297 µM) | MIC (Cryptococcus neoformans): 8 µg/mL (≈ 18.6 µM) | MIC (Pichia kudriavzevii): 16 µg/mL (≈ 37.2 µM) | MIC (Nakaseomyces glabratus): 32 µg/mL (≈ 74.4 µM) | MIC (Candida parapsilosis): 4 µg/mL (≈ 9.3 µM) | MIC (Candida albicans [6]): 0.125 µg/mL (≈ 0.29 µM) | MIC (Candida albicans [7]): 16 µg/mL (≈ 37.2 µM)

Cc1ccc(NC(=O)/C=C/c2ccc(COC(Cn3ccnc3)c3ccc(Cl)cc3Cl)cc2)cc1 (stereo not drawn)
MIC (Candida tropicalis): 64 µg/mL (≈ 126 µM) | MIC (Candida albicans [1]): 4 µg/mL (≈ 7.9 µM) | MIC (Candida albicans [2]): 1 µg/mL (≈ 1.97 µM) | MIC (Aspergillus fumigatus): 16 µg/mL (≈ 31.6 µM) | MIC (Candida albicans [3]): 0.03 µg/mL (≈ 0.0592 µM) | MIC (Candida albicans [4]): 0.25 µg/mL (≈ 0.494 µM) | MIC (Candida albicans [5]): 1 µg/mL (≈ 1.97 µM) | MIC (Cryptococcus neoformans): 0.125 µg/mL (≈ 0.247 µM) | MIC (Pichia kudriavzevii): 16 µg/mL (≈ 31.6 µM) | MIC (Nakaseomyces glabratus): 16 µg/mL (≈ 31.6 µM) | MIC (Candida parapsilosis): 0.125 µg/mL (≈ 0.247 µM) | MIC (Candida albicans [6]): 0.06 µg/mL (≈ 0.118 µM) | MIC (Candida albicans [7]): 2 µg/mL (≈ 3.95 µM)

O=C(/C=C/c1ccc(COC(Cn2ccnc2)c2ccc(Cl)cc2Cl)cc1)Nc1ccc(Br)cc1 (stereo not drawn)
MIC (Candida tropicalis): 32 µg/mL (≈ 56 µM) | MIC (Candida albicans [1]): 16 µg/mL (≈ 28 µM) | MIC (Candida albicans [2]): 8 µg/mL (≈ 14 µM) | MIC (Aspergillus fumigatus): 16 µg/mL (≈ 28 µM) | MIC (Candida albicans [3]): 0.06 µg/mL (≈ 0.105 µM) | MIC (Candida albicans [4]): 4 µg/mL (≈ 7 µM) | MIC (Candida albicans [5]): 32 µg/mL (≈ 56 µM) | MIC (Cryptococcus neoformans): 4 µg/mL (≈ 7 µM) | MIC (Pichia kudriavzevii): 16 µg/mL (≈ 28 µM) | MIC (Nakaseomyces glabratus): 8 µg/mL (≈ 14 µM) | MIC (Candida parapsilosis): 0.25 µg/mL (≈ 0.438 µM) | MIC (Candida albicans [6]): 0.03 µg/mL (≈ 0.0525 µM) | MIC (Candida albicans [7]): 4 µg/mL (≈ 7 µM)

NC(=O)/C=C/c1ccc(COC(Cn2ccnc2)c2ccc(Cl)cc2Cl)cc1 (stereo not drawn)
MIC (Candida tropicalis): 8 µg/mL (≈ 19.2 µM) | MIC (Candida albicans [1]): 128 µg/mL (≈ 307 µM) | MIC (Candida albicans [2]): 32 µg/mL (≈ 76.9 µM) | MIC (Aspergillus fumigatus): 64 µg/mL (≈ 154 µM) | MIC (Candida albicans [3]): 2 µg/mL (≈ 4.8 µM) | MIC (Candida albicans [4]): 16 µg/mL (≈ 38.4 µM) | MIC (Candida albicans [5]): 128 µg/mL (≈ 307 µM) | MIC (Cryptococcus neoformans): 16 µg/mL (≈ 38.4 µM) | MIC (Pichia kudriavzevii): 64 µg/mL (≈ 154 µM) | MIC (Nakaseomyces glabratus): 64 µg/mL (≈ 154 µM) | MIC (Candida parapsilosis): 4 µg/mL (≈ 9.61 µM) | MIC (Candida albicans [6]): 1 µg/mL (≈ 2.4 µM) | MIC (Candida albicans [7]): 32 µg/mL (≈ 76.9 µM)

O=c1ccc2ccc(COC(Cn3ccnc3)c3ccc(Cl)cc3Cl)cc2o1 (stereo not drawn)
MIC (Candida tropicalis): 0.25 µg/mL (≈ 0.602 µM) | MIC (Candida albicans [1]): 1 µg/mL (≈ 2.41 µM) | MIC (Candida albicans [2]): 4 µg/mL (≈ 9.63 µM) | MIC (Aspergillus fumigatus): 1 µg/mL (≈ 2.41 µM) | MIC (Candida albicans [3]): 0.06 µg/mL (≈ 0.144 µM) | MIC (Candida albicans [4]): 4 µg/mL (≈ 9.63 µM) | MIC (Candida albicans [5]): 4 µg/mL (≈ 9.63 µM) | MIC (Cryptococcus neoformans): 2 µg/mL (≈ 4.82 µM) | half-life [8]: > 6 h | MIC (Pichia kudriavzevii): 2 µg/mL (≈ 4.82 µM) | MIC (Nakaseomyces glabratus): 0.5 µg/mL (≈ 1.2 µM) | MIC (Candida parapsilosis): 0.5 µg/mL (≈ 1.2 µM) | MIC (Candida albicans [6]): 0.03 µg/mL (≈ 0.0722 µM) | MIC (Candida albicans [7]): 1 µg/mL (≈ 2.41 µM)

COc1ccc(NC(=O)/C=C/c2ccc(COC(Cn3ccnc3)c3ccc(Cl)cc3Cl)cc2)cc1 (stereo not drawn)
MIC (Candida tropicalis): 4 µg/mL (≈ 7.66 µM) | MIC (Candida albicans [1]): 4 µg/mL (≈ 7.66 µM) | MIC (Candida albicans [2]): 4 µg/mL (≈ 7.66 µM) | MIC (Aspergillus fumigatus): 4 µg/mL (≈ 7.66 µM) | MIC (Candida albicans [3]): 0.03 µg/mL (≈ 0.0574 µM) | MIC (Candida albicans [4]): 0.25 µg/mL (≈ 0.479 µM) | MIC (Candida albicans [5]): 2 µg/mL (≈ 3.83 µM) | MIC (Cryptococcus neoformans): 0.125 µg/mL (≈ 0.239 µM) | MIC (Pichia kudriavzevii): 2 µg/mL (≈ 3.83 µM) | MIC (Nakaseomyces glabratus): 4 µg/mL (≈ 7.66 µM) | MIC (Candida parapsilosis): 0.125 µg/mL (≈ 0.239 µM) | MIC (Candida albicans [6]): 0.06 µg/mL (≈ 0.115 µM) | MIC (Candida albicans [7]): 4 µg/mL (≈ 7.66 µM)
